37 compounds from patent publication US20230203044A1, “PYRAZOLO[1,5-D][1,2,4]TRIAZINE-5(4H)-ACETAMIDES AS INHIBITORS OF THE NLRP3 INFLAMMASOME” (JANSSEN PHARMACEUTICA NV, priority 2020, published 2023) can be followed below.

Molecules are shown by their SMILES.

One test deals with NLRP3 inflammasome. Kind of test: PBMC assay: IL-1β in LPS-stimulated human PBMCs (MSD). Format: cell-based. Conditions: human PBMCs, 100 ng/ml LPS for 6 hrs, IL-1β in supernatant via MSD, read-out: IL1β IC50. The method, then:
The activity of a compound according to the present invention can be assessed by in vitro methods.
Peripheral venous blood was collected from healthy individuals and human peripheral blood mononuclear cells (PBMCs) were isolated from blood by Ficoll-Histopaque (Sigma-Aldrich, A0561) density gradient centrifugation. After isolation, PBMCs were stored in liquid nitrogen for later use. Upon thawing, PBMC cell viability was determined in growth medium (RPMI media supplemented with 10% fetal bovine serum, 1% Pen-Strep and 1% L-glutamine). […] PBMCs were added at a density of 7.5×10^4 cells per well and incubated for 30 min in a 5% CO2 incubator at 37° C. LPS stimulation was performed by addition of 100 ng/ml LPS (final concentration, Invivogen, tlrl-smlps) for 6 hrs followed by collection of cellular supernatant and the analysis of IL-1β (μM) and TNF cytokines levels (μM) via MSD technology according to manufacturers' guidelines (MSD, K151A0H).

The test system of the next test is TNF. Kind of test: PBMC assay: TNF cytokine levels in LPS-stimulated human PBMCs (MSD). Format: cell-based. Conditions: 100 ng/ml LPS for 6 hrs, TNF in supernatant via MSD. The method, then:
Peripheral venous blood was collected from healthy individuals and human peripheral blood mononuclear cells (PBMCs) were isolated from blood by Ficoll-Histopaque (Sigma-Aldrich, A0561) density gradient centrifugation. After isolation, PBMCs were stored in liquid nitrogen for later use. Upon thawing, PBMC cell viability was determined in growth medium (RPMI media supplemented with 10% fetal bovine serum, 1% Pen-Strep and 1% L-glutamine). Compounds were spotted in a 1:3 serial dilution in DMSO and diluted to the final concentration in 30 μl medium in 96 well plates (Falcon, 353072). PBMCs were added at a density of 7.5×10^4 cells per well and incubated for 30 min in a 5% CO2 incubator at 37° C. LPS stimulation was performed by addition of 100 ng/ml LPS (final concentration, Invivogen, tlrl-smlps) for 6 hrs followed by collection of cellular supernatant and the analysis of IL-1β (μM) and TNF cytokines levels (μM) via MSD technology according to manufacturers' guidelines (MSD, K151A0H).
The IC50 values (for IL-1β) and EC50 values (TNF) were obtained on compounds of the invention/examples, and are depicted in the following table: […]

Broadly, the IC50 is the midpoint of a concentration-inhibition curve. The EC50 is the concentration needed to bring the measured effect to its halfway point. A low value points to a more potent agent. On to `CN(C)c1nn(CC(=O)Nc2ccc3nncn3c2)c(=O)c2cc(C3CC3)nn12` [Final Cpd 37], for which the IC50 with NLRP3 inflammasome turned out to be 560 nM. The same compound showed an EC50 in the test on TNF of over 10000 nM.
The corresponding values for `Cc1nn(CC(=O)Nc2ccncn2)c(=O)c2cc(C3CC3)nn12` [Final Cpd 48] are 890 nM and over 10000 nM.
The corresponding values for `O=C(Cn1nc(C2CC2)n2nc(C3CC3)cc2c1=O)Nc1ccc2nncn2n1` [Final Cpd 163, N-([1,2,4]triazolo[4,3-b]pyridazin-6-yl)-2-(2,7-dicyclopropyl-4-oxopyrazolo[1,5-d][1,2,4]triazin-5(4H)-yl)acetamide] are 620 nM and over 10000 nM.
`CC(C)Cc1nn(CC(=O)Nc2ccc3nncn3c2)c(=O)c2cc(C3CC3)nn12` [Final Cpd 69]: the IC50 in the test on NLRP3 inflammasome is about 2450 nM. Also, the EC50 with TNF is over 10000 nM.
The like results for `C=CC(C)c1nn(CC(=O)N[C@H]2C[C@@](C)(O)C2)c(=O)c2cc(C3CC3)nn12` (some centres unmarked) [Final Cpd 200] were, in that order, over 10000 nM and over 10000 nM.
Take `CCN1CC[C@@H](O)[C@@H](NC(=O)Cn2nc(C(C)C)n3nc(C4CC4)cc3c2=O)C1` [Final Cpd 190, 2-(2-cyclopropyl-7-isopropyl-4-oxopyrazolo[1,5-d][1,2,4]triazin-5(4H)-yl)-N-((3S,4R)-1-ethyl-4-hydroxypiperidin-3-yl)acetamide]: in the test with NLRP3 inflammasome, the IC50 was 54 nM. For the same compound, the concentration for a half-maximal effect (EC50) in the test with TNF is over 10000 nM.
The like results for `CCC(C)c1nn(CC(=O)N[C@H]2C[C@@](C)(O)C2)c(=O)c2cc(C3CC3)nn12` (some centres unmarked) [Final Cpd 201] were, in that order, over 10000 nM and over 10000 nM.
The like results for `CCCCc1nn(CC(=O)Nc2ccc3nncn3c2)c(=O)c2cc(C3CC3)nn12` [Final Cpd 68] were, in that order, 780 nM and over 10000 nM.
The like results for `COc1ccc(NC(=O)Cn2nc(C(C)C)n3nc(C4CC4)cc3c2=O)cn1` [Final Cpd 111] were, in that order, 830 nM and over 10000 nM.
For `CCc1cc2c(=O)n(CC(=O)Nc3ccncn3)nc(C(C)C)n2n1` [Final Cpd 1, 2-(2-ethyl-7-isopropyl-4-oxo-pyrazolo[1,5-d][1,2,4]triazin-5-yl)-N-pyrimidin-4-yl-acetamide], in the test with NLRP3 inflammasome, the IC50 worked out at 340 nM. Besides, in the test with TNF, the EC50 is over 10000 nM.
The corresponding values for `CC(C)c1nn(CC(=O)Nc2ccn3ccnc3c2)c(=O)c2cc(C3CC3)nn12` [Final Cpd 90] are 390 nM and over 10000 nM.
Take `Cc1cn2nc(NC(=O)Cn3nc(C(C)C)n4nc(C5CC5)cc4c3=O)ccc2n1` [Final Cpd 114]: in the test on NLRP3 inflammasome, the IC50 was 350 nM. The compound also had a half-maximal effective concentration (EC50) in the test with TNF of over 10000 nM.
Take `CCc1nn(CC(=O)Nc2ccc3nncn3c2)c(=O)c2cc(I)nn12` [Final Cpd 6]: the IC50 in the test with NLRP3 inflammasome turned out to be 230 nM. This compound also had an EC50 in the test with TNF of over 10000 nM.
As to `CC(C)c1nn(CC(=O)Nc2ccc3nncn3c2)c(=O)c2cc(I)nn12` [Final Cpd 23], the IC50 in the test with NLRP3 inflammasome is 55 nM. Besides, in the test on TNF, the EC50 was over 10000 nM.
`CC(C)c1cc2c(=O)n(CC(=O)Nc3ccncn3)nc(C(C)O)n2n1` (centres unmarked) [Final Cpd 156]: the IC50 with NLRP3 inflammasome was found to be 1960 nM. In the test on TNF, the EC50 was over 10000 nM.
`Cc1ccncc1NC(=O)Cn1nc(C(C)C)n2nc(C3CC3)cc2c1=O` [Final Cpd 138]: the IC50 in the test with NLRP3 inflammasome is over 10000 nM. Also, the EC50 with TNF was over 10000 nM.
With `CC(C)c1nn(CC(=O)NC2CC(C(C)(C)O)C2)c(=O)c2cc(C3CC3)nn12` (centres unmarked) [Final Cpd 88], in the test on NLRP3 inflammasome, the IC50 is 1290 nM. In the test on TNF, the EC50 is over 10000 nM.
The corresponding values for `CCc1nn(CC(=O)Nc2ccncn2)c(=O)c2cc(C)nn12` [Final Cpd 14] are 8110 nM and over 10000 nM.
For the compound `CC(C)c1cc2c(=O)n(CC(=O)Nc3ccnnc3)nc(N(C)C)n2n1` [Final Cpd 149], the IC50 in the test with NLRP3 inflammasome is 780 nM. This compound displayed an EC50 with TNF of over 10000 nM.
The corresponding values for `COc1cc(NC(=O)Cn2nc(C(C)C)n3nc(C4CC4)cc3c2=O)ccn1` [Final Cpd 129] are 670 nM and over 10000 nM.
The like results for `CC(C)c1cc2c(=O)n(CC(=O)Nc3ccncn3)nc(N(C)C)n2n1` [Final Cpd 147] were, in that order, 400 nM and over 10000 nM.
The like results for `CC(C)c1nn(CC(=O)Nc2ccc3cn[nH]c3c2)c(=O)c2cc(C3CC3)nn12` [Final Cpd 126] were, in that order, 70 nM and over 10000 nM.
Consider `Cc1cc(NC(=O)Cn2nc(C(C)C)n3nc(C4CC4)cc3c2=O)ccn1` [Final Cpd 127], for which the IC50 with NLRP3 inflammasome was 180 nM. In the test with TNF, this compound registered an EC50 of over 10000 nM.
`CC(=O)c1cc2c(=O)n(CC(=O)Nc3ccncn3)nc(C(C)C)n2n1` [Final Cpd 183, 2-(2-acetyl-7-isopropyl-4-oxopyrazolo[1,5-d][1,2,4]triazin-5(4H)-yl)-N-(pyrimidin-4-yl)acetamide]: the IC50 with NLRP3 inflammasome was determined as 5040 nM. Besides, in the test on TNF, the EC50 is over 10000 nM.
The like results for `CC(C)c1nn(CC(=O)N[C@@H]2CCCNC2)c(=O)c2cc(C3CC3)nn12` [Final Cpd 187, (R)-2-(2-cyclopropyl-7-isopropyl-4-oxopyrazolo[1,5-d][1,2,4]triazin-5(4H)-yl)-N-(piperidin-3-yl)acetamide] were, in that order, 800 nM and over 10000 nM.
The corresponding values for `CCc1cc2c(=O)n(CC(=O)Nc3ccnnc3)nc(N(C)C)n2n1` [Final Cpd 152] are 860 nM and over 10000 nM.
Consider `CC(C)c1nn(CC(=O)N[C@H]2CN(C(=O)OC(C)(C)C)CC[C@H]2O)c(=O)c2cc(C3CC3)nn12` [Final Cpd 34], for which the IC50 with NLRP3 inflammasome came to 5660 nM. Further, the EC50 with TNF is over 10000 nM.
The corresponding values for `CCc1nn(CC(=O)Nc2ccncn2)c(=O)c2cc(NC)nn12` [Final Cpd 20] are 1140 nM and over 10000 nM.
The corresponding values for `CC(C)c1nn(CC(=O)Nc2ccn3cnnc3c2)c(=O)c2cc(C3CC3)nn12` [Final Cpd 93] are 1510 nM and over 10000 nM.
The corresponding values for `CC(C)c1nn(CC(=O)N[C@H]2C[C@@](C)(O)C2)c(=O)c2cc(I)nn12` [Final Cpd 24] are 110 nM and over 10000 nM.
As to `CCc1nn(CC(=O)Nc2ccncn2)c(=O)c2cc(C(C)C)nn12` [Final Cpd 16], the IC50 in the test on NLRP3 inflammasome worked out at 840 nM. The EC50 with TNF was over 10000 nM.
The like results for `Cc1ccc(NC(=O)Cn2nc(C(C)C)n3nc(C4CC4)cc3c2=O)cn1` [Final Cpd 122] were, in that order, 820 nM and over 10000 nM.
The like results for `CC(C)c1nn(CC(=O)N[C@@H]2CCC(=O)N(CC3CC3)C2)c(=O)c2cc(C3CC3)nn12` [Final Cpd 26] were, in that order, over 10000 nM and over 10000 nM.
The like results for `CC(C)c1nn(CC(=O)NC2CCOCC2)c(=O)c2cc(C3CC3)nn12` [Final Cpd 36] were, in that order, 970 nM and over 10000 nM.
Consider `CC(C)c1nn(CC(=O)N[C@@H]2CCCN(C3CCC3)C2)c(=O)c2cc(C3CC3)nn12` [Final Cpd 9], for which the IC50 in the test on NLRP3 inflammasome was under 120 nM. In the test on TNF, this compound displayed an EC50 of over 10000 nM.
In the case of `Cc1nccc(NC(=O)Cn2nc(C(C)C)n3nc(C4CC4)cc3c2=O)c1F` [Final Cpd 97], in the test on NLRP3 inflammasome, the IC50 was 200 nM. The EC50 in the test with TNF is over 10000 nM.
The like results for `CC(C)c1nn(CC(=O)Nc2ccncn2)c(=O)c2cc(N)nn12` [Final Cpd 186, 2-(2-amino-7-isopropyl-4-oxopyrazolo[1,5-d][1,2,4]triazin-5(4H)-yl)-N-(pyrimidin-4-yl)acetamide] were, in that order, over 10000 nM and over 10000 nM.
